Patent US20150376216A1, “SUGAR-ANALOG PHOSPHORUS-CONTAINING HETEROCYCLES HAVING AN ANTI-METASTATIC ACTIVITY” (CENTRE NATIONAL DE LA RECHERCHE SCIENTIRIQUE, priority 2013, published 2015)

Legend:
[1] = tested on: A431 line; assay: MTT antiproliferative test, A431; assay type: cell-based, human; conditions: Homo sapiens, A-431; A431; 72 hours, MTT; read-out: IC50, inhibition of proliferation
Method: (§1) The lines MDAMB-435 and A431 are seeded at a density of 3000 cells per well in 96-well plates. After 24 hours, compounds 4.2a and 5.6d resuspended in 100% DMSO are added at concentrations of 0-0.001-0.010-0.1-1-10-50 μM for a final constant amount of DMSO of 0.3%. The cultures are maintained for a further 72 hours and an MTT colorimetric test is then performed. 100 μl of a solution of MTT at 5 mg/ml in PBS are added to the culture medium, which is left to incubate for 3 hours. The culture medium is removed and the cells are lyzed by adding 100 μL of a 4 mM HCl solvent, 0.1% Nondet P-40 (NP40) in isopropanol. The yellow tetrazolium MTT salt (3-(4,5-dimethylthiazol-2-yl)-2,5-diphenyl tetrazolium bromide), when it is reduced by the mitochondrial succinate dehydrogenase of active live cells, forms a blue-violet formazan product. The medium then changes from yellow to blue-violet. The intensity of this coloration at 590 nm is proportional to the number of live cells present during the test and gives an indication of the metabolic activity of these cells.
(§2) Table 1 gives the concentration values for 50% inhibition of proliferation (IC50) for compounds 4.2a and 5.6d on lines derived from bowel cancer (CaCo2), skin cancer (A431, MDAMB-435, B16F10), breast cancer (MDAMB-431), […] (HuH7), prostate cancer (DU145) and brain cancer (SNB75, Gli4, Gli7).

[2] = tested on: MDAMB-435 cells; assay: MDAMB-435 subcutaneous model; assay type: in vivo, mice
Method: A suspension of 1×10^6 MDAMB-435 cells in 100 μl of sterile PBS (phosphate-buffered saline, supplied by Fisher) was injected into each mouse (subcutaneous administration, with anesthesia, in the mammary gland of the left hind quarter). Once a control pregroup of three mice presented the first metastases (liver, intestine, ovary), the protocol was conducted with […] of eight mice. The five groups of mice were treated using one of the five formulations described below:
Group A: Treatment by injection of 100 μl of NaCl (control N° 1).
Group B: Treatment by injection of 100 to 150 μl according to the weight of the mice of formulation 2 not containing compound 4.2a (control N° 2).
Group C: Treatment with compound 4.2a at a rate of 10 mg/kg with volumes of 100 to 150 μl of formulation 2 depending on the weight of the mice.
Group D: Treatment with compound 4.2a at a rate of 5 mg/kg with volumes of 100 to 150 μl of formulation 2 depending on the weight of the mice.
Each batch was treated by intravenous injection into the caudal vein of 100 to 150 μl of solution (precision syringe and G25X1 needle ultrafine wall, VWR). Three injections per week for four weeks were performed. The mice were weighed at each injection. The mice were sacrificed after four weeks, and the tumors and organs (liver, kidney, spleen, brain, intestine, heart, muscles) were removed. A histological analysis was performed on these organs.

[3] = Solubility / formulation behaviour; assay type: physicochemical
Method: The following two formulations are particularly suited to compounds 3.48a and 4.2a and allow their in vivo administration, at concentrations of about 20-100 mg/kg, intravenously: […]

[4] = tested on: SNB75 glioblastoma line; assay: MTT antiproliferative test, SNB75; assay type: cell-based; conditions: Homo sapiens, SNB-75, read-out: IC50, inhibition of proliferation
Method: (§3) Several cancer cell lines were used for the in vivo or in vitro biological tests: • SNB75 is a human glioblastoma line derived from a primary culture, i.e. derived from a primary malignant cancer tumor. It forms part of the panel of 59 cancer lines referenced by the NCI. Its Cosmic reference number published by the Welcome Trust Sanger Institute is 905982. This line was supplied by a person (M.D. Ph.D of the department of “Radiation Oncology”, Stanford University Medical Center). It was cultured in Ham's F-12 and DMEM (1/1) supplemented with 10% fetal bovine serum. The experiments were performed with cells in the exponential growth phase. • Gli4 (or Gli4F11) and Gli7 are cultures of cancer strain cells derived from human glioblastomas (primary cultures). These lines are CD133^+, CD15^+ which are multipotent and tumorigenic in animals. They were established by J. P. Hugnot (INM INSERM U-1051 Eq. 4), and described in Guichet, P. O. et al, Glia 2013, 61(2), 225-239; • C6 is a rat glioblastoma line. It is referenced in the ATCC under the reference CCL-107. • MDAMB-435 is a melanoma line derived from a mammary melanoma. It forms part of the panel of 59 cancer lines referenced by the NCI. It is referenced at the ATCC under the reference HTB-129. It was cultured in Ham's F-12 and DMEM (1/1) supplemented with 10% fetal bovine serum. […]

[5] = tested on: HuH7; assay: MTT antiproliferative test, HuH7; assay type: cell-based; conditions: Homo sapiens, Huh-7, read-out: IC50, inhibition of proliferation
Method: as §1, §2

[6] = tested on: MDAMB-435 melanoma line; assay: MTT antiproliferative test, MDAMB-435; assay type: cell-based; conditions: Homo sapiens, MDA-MB-435, 72 hours, read-out: IC50, inhibition of proliferation
Method: as §1, §2

[7] = tested on: GLi4; assay: MTT antiproliferative test, Gli4; assay type: cell-based; conditions: Homo sapiens, read-out: IC50, inhibition of proliferation
Method: as §3

[8] = tested on: CaCo2; assay: MTT antiproliferative test, CaCo2; assay type: cell-based; conditions: Homo sapiens, Caco-2, read-out: IC50, inhibition of proliferation
Method: as §1, §2

[9] = tested on: MDAMB-231; assay: MTT antiproliferative test, MDAMB-231; assay type: cell-based; conditions: Homo sapiens, MDA-MB-231, read-out: IC50, inhibition of proliferation
Method: as §1, §2

[10] = tested on: C6 glioblastoma line; assay: MTT antiproliferative test, C6; assay type: cell-based; conditions: Rattus norvegicus, read-out: IC50, inhibition of proliferation
Method: as §3

[11] = tested on: DU145; assay: MTT antiproliferative test, DU145; assay type: cell-based; conditions: Homo sapiens, DU-145, read-out: IC50, inhibition of proliferation
Method: as §1, §2

[12] = Acute in vivo toxicity; conditions: healthy mice; 50, 25, 10, 5 and 1 mg/kg; maximum dose 50 mg/kg
Method: Studies of the acute toxicity of compounds 3.48a and 4.2a were performed on healthy mice for a concentration range of 50, 25, 10, 5 and 1 mg/kg.

[13] = 10 and 5 mg/kg i.v. (groups C and D), three injections per week for four weeks

In the case of `CC1(C)O[C@H]2[C@@H]([C@H]3COC(C)(C)O3)O[P@](=O)(c3ccccc3)[C@@H](OC(=O)c3ccccc3)[C@H]2O1` [Compound 4.2a, (SPRSRR)-3-benzoate-4-(2,2-dimethyl-[1,3]dioxolan-4-yl)-2,2-dimethyl-2-oxo-2-phenyl-tetrahydro-2λ^5-[1,2]oxaphosphinane], the IC50 [1] is reported as 4.35 µM, the “Metastases in the ovaries (FIG. 4)” value ([2]; 10 and 5 mg/kg (groups C and D)) is reported as “absence of metastases” and the “Number of metastases per mouse (FIG. 5)” value ([2]; 10 and 5 mg/kg (groups C and D), controls predominantly more than two) is reported as “none of the mice treated with compound 4.2a (groups C and D) developed more than two metastases”. The “Metastatic development (size of metastases)” value [2, 13] was “a reduction in metastatic development (small-sized metastases)”, the Number of metastases [2, 13] was “a large reduction in the number of metastases” and the “Mass distribution of secondary tumors (FIG. 6)” value ([2]; as a function of the treatment conditions) was “reduced the development of metastases”. For the same compound, the Complexation in cyclodextrins [3] was “non-complexible in cyclodextrins”, the Solubility ([3]; water, water-soluble solvents) was “insoluble in water, in numerous water-soluble solvents” and the IC50 [4] was 9.54 µM. The IC50 [5] was over 100 µM, the IC50 [6] was 0.66 µM and the IC50 [7] was 6.81 µM. For the same compound, the IC50 [8] was over 100 µM, the IC50 [9] was 1.16 µM and the IC50 [10] was 8.51 µM. For the same compound, the IC50 [11] was over 100 µM and the “Mortality, acute toxicity” value [12] was “No mortality was observed”.
